Experimental data: patent publication US20070249620A1, “Urea Derivative” (priority 2004, published 2007)

Assays:
mouse DGAT1 = molecular target: T1, mouse DGAT1 (Mus musculus, UniProt Q9Z2A7); assay: DGAT1 inhibitory effect test (microsome fraction, [14C]-oleoyl-CoA, triglyceride radioactivity by TLC); assay type: biochemical; conditions: 0.5 h; concentration of the test compound 0.1 μg/ml; mouse DGAT1 microsomes, 23° C., 30 minutes; read-out: Inhibitory ratio
T1 construct: made in house; host or cells: insect cells (High Five, Sf9, Sf21, etc.), baculovirus expression system (Invitrogen)
T1 sequence (Q9Z2A7 1-498): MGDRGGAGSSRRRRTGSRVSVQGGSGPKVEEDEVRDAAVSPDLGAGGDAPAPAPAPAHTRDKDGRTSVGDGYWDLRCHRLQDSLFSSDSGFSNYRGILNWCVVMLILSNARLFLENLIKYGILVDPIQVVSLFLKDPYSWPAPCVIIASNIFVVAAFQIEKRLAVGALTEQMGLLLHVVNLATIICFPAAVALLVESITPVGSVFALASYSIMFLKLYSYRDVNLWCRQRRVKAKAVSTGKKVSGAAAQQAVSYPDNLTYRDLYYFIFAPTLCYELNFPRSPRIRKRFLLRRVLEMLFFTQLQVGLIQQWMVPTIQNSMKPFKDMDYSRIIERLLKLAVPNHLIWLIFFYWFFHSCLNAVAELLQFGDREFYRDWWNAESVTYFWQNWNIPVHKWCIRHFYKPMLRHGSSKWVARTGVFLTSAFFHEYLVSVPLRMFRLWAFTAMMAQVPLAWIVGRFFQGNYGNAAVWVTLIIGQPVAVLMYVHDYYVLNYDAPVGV
How it was run: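 Inhibition was scored from radiolabelled triglyceride separated by TLC, relative to vehicle and net of a 0-min background. The reaction ran for 30 min at room temperature (23 °C) in Tris-HCl pH 8.0 with MgCl2, BSA and Triton X-100. Substrates were 30 μM [14C]-oleoyl-CoA and 0.5 mM dioleoylglycerol, with mouse DGAT1 microsomes from baculovirus-infected insect cells as enzyme.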

SMILES | melting point | inhibition at 0.1 µg/mL (mouse DGAT1) [%]
CCC(C)c1ccc(NC(=O)Nc2ccc(N3CCN(C(=O)Nc4c(C)cccc4Cl)CC3)cc2)cc1 (centres unmarked) [Example 161, 4-{4-[3-(4-sec-butyl-phenyl)-ureido]-phenyl}-piperazine-1-carboxylic acid (2-chloro-6-methyl-phenyl)-amide] | 259 to 261 °C | ≥ 50
CCCCOc1ccc(NC(=O)Nc2ccc(N3CCN(C(=O)Nc4c(C)cccc4Cl)CC3)cc2)cc1 [Example 162, 4-{4-[3-(4-butoxy-phenyl)-ureido]-phenyl}-piperazine-1-carboxylic acid (2-chloro-6-methyl-phenyl)-amide] | 218 to 219 °C | ≥ 50
Cc1cccc(Cl)c1NC(=O)N1CCN(c2ccc(NC(=O)Nc3cc(C(F)(F)F)ccc3F)cc2)CC1 [Example 163, 4-{4-[3-(2-fluoro-5-trifluoromethyl-phenyl)-ureido]-phenyl}-piperazine-1-carboxylic acid (2-chloro-6-methyl-phenyl)-amide] | 228 to 230 °C | ≥ 50
Cc1cccc(Cl)c1NC(=O)N1CCN(c2ccc(NC(=O)Nc3cc(C(F)(F)F)ccc3Cl)cc2)CC1 [Example 164, 4-{4-[3-(2-chloro-5-trifluoromethyl-phenyl)-ureido]-phenyl}-piperazine-1-carboxylic acid (2-chloro-6-methyl-phenyl)-amide] | 249 to 251 °C | ≥ 50
COc1ccc(C)cc1NC(=O)Nc1ccc(N2CCN(C(=O)Nc3c(C)cccc3N)CC2)cc1 [Example 167, 4-{4-[3-(2-methoxy-5-methyl-phenyl)-ureido]-phenyl}-piperazine-1-carboxylic acid (2-amino-6-methyl-phenyl)-amide] | 198 to 199 °C | ≥ 50
COc1ccc(C)cc1NC(=O)Nc1ccc(N2CCN(C(=O)Nc3ccc(N)cc3Cl)CC2)cc1 [Example 168, 4-{4-[3-(2-methoxy-5-methyl-phenyl)-ureido]-phenyl}-piperazine-1-carboxylic acid (4-amino-2-chloro-phenyl)-amide] | 226 to 228 °C | ≥ 50
COc1ccc(C)cc1NC(=O)Nc1ccc(N2CCN(C(=O)Nc3c(C)cccc3OC)CC2)cc1 [Example 170, 4-{4-[3-(2-methoxy-5-methyl-phenyl)-ureido]-phenyl}-piperazine-1-carboxylic acid (2-methoxy-6-methyl-phenyl)-amide] | 200 to 203 °C | ≥ 50
COc1ccc(C)cc1NC(=O)Nc1ccc(N2CCN(C(=O)Nc3ccc(F)cc3C)CC2)cc1 [Example 172, 4-{4-[3-(2-methoxy-5-methyl-phenyl)-ureido]-phenyl}-piperazine-1-carboxylic acid (4-fluoro-2-methyl-phenyl)-amide] | > 270 °C (dec.) | ≥ 50
COc1ccc(C)cc1NC(=O)Nc1ccc(N2CCN(C(=O)Nc3ccc(NC(C)=O)cc3C(F)(F)F)CC2)cc1 [Example 173, 4-{4-[3-(2-methoxy-5-methyl-phenyl)-ureido]-phenyl}-piperazine-1-carboxylic acid (4-acetylamino-2-trifluoromethyl-phenyl)-amide] | 152 to 154 °C | ≥ 50
COc1ccc(C)cc1NC(=O)Nc1ccc(N2CCN(C(=O)Nc3ccc(C(C)C)cc3C(F)(F)F)CC2)cc1 [Example 178, 4-{4-[3-(2-methoxy-5-methyl-phenyl)-ureido]-phenyl}-piperazine-1-carboxylic acid (4-isopropyl-2-trifluoromethyl-phenyl)-amide] | 134 to 135 °C | ≥ 50
COc1ccc(C)cc1NC(=O)Nc1ccc(N2CCN(C(=O)Nc3c(C)cccc3C(=O)O)CC2)cc1 [Example 179, 2-[(4-{4-[3-(2-methoxy-5-methyl-phenyl)-ureido]-phenyl}-piperazine-1-carbonyl)-amino]-3-methyl-benzoic acid] | 159 to 160 °C | ≥ 50
COc1ccc(C)cc1NC(=O)Nc1ccc(N2CCN(C(=O)Nc3ccc(C(=O)O)cc3C)CC2)cc1 [Example 180, 4-[(4-{4-[3-(2-methoxy-5-methyl-phenyl)-ureido]-phenyl}-piperazine-1-carbonyl)-amino]-3-methyl-benzoic acid] | 178 to 180 °C | ≥ 50
CCOc1ccccc1NC(=O)Nc1ccc(N2CCN(C(=O)Nc3c(C)cccc3OC)CC2)cc1 [Example 183, 4-{4-[3-(2-ethoxy-phenyl)-ureido]-phenyl}-piperazine-1-carboxylic acid (2-methoxy-6-methyl-phenyl)-amide] | 169 to 171 °C | ≥ 50
CCOc1ccc(C)cc1NC(=O)Nc1ccc(N2CCN(C(=O)Nc3c(C)cccc3OC)CC2)cc1 [Example 184, 4-{4-[3-(2-ethoxy-5-methyl-phenyl)-ureido]-phenyl}-piperazine-1-carboxylic acid (2-methoxy-6-methyl-phenyl)-amide] | 142 to 144 °C | ≥ 50
COc1ccc(C)cc1NC(=O)Nc1ccc(N2CCN(C(=O)Nc3c(C)cccc3CO)CC2)cc1 [Example 185, 4-{4-[3-(2-methoxy-5-methyl-phenyl)-ureido]-phenyl}-piperazine-1-carboxylic acid (2-hydroxymethyl-6-methyl-phenyl)-amide] | 192 to 194 °C | ≥ 50
COc1ccc(C)cc1NC(=O)Nc1ccc(N2CCN(C(=O)Nc3c(C)cccc3OC)CC2)nc1 [Example 186, 4-{5-[3-(2-methoxy-5-methyl-phenyl)-ureido]-pyridin-2-yl}-piperazine-1-carboxylic acid (2-methoxy-6-methyl-phenyl)-amide] | 198 to 200 °C | ≥ 50

Next, values leading:

melting point | inhibition at 0.1 µg/mL (mouse DGAT1) [%] | SMILES
> 260 °C (dec.) | ≥ 50 | Cc1ccc(Cl)c(NC(=O)Nc2ccc(N3CCN(C(=O)Nc4c(C)cccc4Cl)CC3)cc2)c1 [Example 165, 4-{4-[3-(2-chloro-5-methyl-phenyl)-ureido]-phenyl}-piperazine-1-carboxylic acid (2-chloro-6-methyl-phenyl)-amide]
244 to 246 °C | ≥ 50 | COc1ccc(C)cc1NC(=O)Nc1ccc(N2CCN(C(=O)Nc3ccc(N)cc3C(F)(F)F)CC2)cc1 [Example 166, 4-{4-[3-(2-methoxy-5-methyl-phenyl)-ureido]-phenyl}-piperazine-1-carboxylic acid (4-amino-2-trifluoromethyl-phenyl)-amide]
155 to 157 °C | ≥ 50 | COc1ccc(C)cc1NC(=O)Nc1ccc(N2CCN(C(=O)Nc3ccc(NC(C)=O)cc3Cl)CC2)cc1 [Example 169, 4-{4-[3-(2-methoxy-5-methyl-phenyl)-ureido]-phenyl}-piperazine-1-carboxylic acid (4-acetylamino-2-chloro-phenyl)-amide]
149 to 151 °C | ≥ 50 | COc1ccc(C)cc1NC(=O)Nc1ccc(N2CCN(C(=O)Nc3ccc(Br)cc3C#N)CC2)cc1 [Example 171, 4-{4-[3-(2-methoxy-5-methyl-phenyl)-ureido]-phenyl}-piperazine-1-carboxylic acid (4-bromo-2-cyano-phenyl)-amide]
238 to 240 °C | ≥ 50 | COc1ccc(C)cc1NC(=O)Nc1ccc(N2CCN(C(=O)Nc3c(C)cc(Cl)cc3C)CC2)cc1 [Example 174, 4-{4-[3-(2-methoxy-5-methyl-phenyl)-ureido]-phenyl}-piperazine-1-carboxylic acid (4-chloro-2,6-dimethyl-phenyl)-amide]
245 to 247 °C | ≥ 50 | COc1ccc(NC(=O)N2CCN(c3ccc(NC(=O)Nc4cc(C)ccc4OC)cc3)CC2)c(C(F)(F)F)c1 [Example 175, 4-{4-[3-(2-methoxy-5-methyl-phenyl)-ureido]-phenyl}-piperazine-1-carboxylic acid (4-methoxy-2-trifluoromethyl-phenyl)-amide]
221 to 222 °C | ≥ 50 | COc1ccc(C)cc1NC(=O)Nc1ccc(N2CCN(C(=O)Nc3c(C)cccc3Br)CC2)cc1 [Example 177, 4-{4-[3-(2-methoxy-5-methyl-phenyl)-ureido]-phenyl}-piperazine-1-carboxylic acid (2-bromo-6-methyl-phenyl)-amide]
209 to 221 °C | ≥ 50 | COc1ccc(C)cc1NC(=O)Nc1ccc(N2CCN(C(=O)Nc3ccc(C(=O)O)cc3Cl)CC2)cc1 [Example 181, 3-chloro-4-[(4-{4-[3-(2-methoxy-5-methyl-phenyl)-ureido]-phenyl}-piperazine-1-carbonyl)-amino]-benzoic acid]
129 to 130 °C | ≥ 50 | CCOc1ccccc1NC(=O)Nc1ccc(N2CCN(C(=O)Nc3c(C)cccc3OC)CC2)nc1 [Example 187, 4-{5-[3-(2-ethoxy-phenyl)-ureido]-pyridin-2-yl}-piperazine-1-carboxylic acid (2-methoxy-6-methyl-phenyl)-amide]
